Measured values reported in US20220280513A1, “ENHANCING THE ANTIVIRAL EFFICACY OF RNA VIRUS INHIBITION BY COMBINATION WITH MODULATORS OF PYRIMIDINE METABOLISM” (The Board of Trustees of the Leland Stanford Junior …, priority 2019, published 2022).
pEC50, pKi: −log10 of the molar value.

Columns and labels:
recombinant human UCK2 = target: T1, recombinant human UCK2 (Homo sapiens, UniProt Q9BZX2); assay: In vitro enzyme activity assay with recombinant human UCK2 (PK/LDH-coupled, UV 340 nm); format: biochemical
T1 construct: 6xHis (C); made in house; host or cells: E. coli BL21(DE3)
T1 sequence (Q9BZX2 1-261): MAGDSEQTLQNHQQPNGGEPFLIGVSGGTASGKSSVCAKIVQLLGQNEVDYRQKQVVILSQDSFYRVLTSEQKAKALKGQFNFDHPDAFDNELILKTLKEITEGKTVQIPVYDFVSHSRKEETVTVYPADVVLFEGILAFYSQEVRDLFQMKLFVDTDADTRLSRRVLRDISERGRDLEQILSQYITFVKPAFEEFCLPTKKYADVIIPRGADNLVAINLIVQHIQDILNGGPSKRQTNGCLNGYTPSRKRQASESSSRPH
Description: In order to guide our SAR studies, we developed an enzymatic assay to evaluate the inhibitory effect of each CPU analog against recombinant human UCK2, which was expressed and purified in E. coli. A continuous assay system was optimized by coupling UCK2 activity to the pyruvate kinase (PK) reaction, which in turn was coupled to lactate dehydrogenase (LDH). Overall reaction progress was continuously monitored by detecting the UV absorption change at 340 nm, which was correlated with the ATP consumption by UCK2. The effect of 250 μM of each CPU analog on UCK2 activity was evaluated in the presence of 50 μM uridine. […] We then individually measured the steady state kinetic parameters of UCK2 using uridine, CPU and 5-F-CPU as substrates. Their KM values were 86, 25, and 41 μM, and their kcat/KM values were 2.6×10^5, 1.5×10^5, and 7.3×10^4 s^−1 M^−1 (FIG. 5B).
Cloning, expression and purification of recombinant human UCK2 and CMPK1: Uridine cytidine kinase 2 (UCK2) was cloned into the pET-21a(+) vector using Ndel and Notl as restriction sites. […] The resulting plasmid was transformed into E. coli BL21(DE3) cells by electroporation, recovered in SOC at 37° C. for 1 h and plated onto LB agar plates with kanamycin overnight at 37° C. A single, isolated colony was inoculated into 30 mL LB supplemented with 50 μg/mL kanamycin and grown at 37° C. with shaking for 15 h. The next day, these cells were used to inoculate 1 L autoclaved LB with 50 μg/mL kanamycin. The flask was shaken at 37° C. When an optical density (OD600) of 0.7 was reached, protein expression was induced with 0.5 mM isopropyl β-D-1-thiogalactopyranoside (IPTG). The temperature was changed to 18° C. and flasks were shaken for an additional 15 h. The cell pellets were collected by spinning the media at 5000 rpm for 10 min. The pellets obtained were frozen by liquid nitrogen and stored in −80° C. for protein purification. Cell pellets were thawed and resuspended in lysis buffer containing Tris (40 mM, pH 7.5), NaCl (10 mM), imidazole (10 mM), DTT (1 mM). Cells were lysed by sonication and centrifuged at 25,000 g for 1 h. The supernatant was incubated with a slurry of Ni-NTA resin for 1 h at 4° C. and loaded onto a column. The nickel column wash buffer was Tris (40 mM, pH 7.5), NaCl (10 mM), DTT (1 mM) and each wash step contained increasing concentrations of imidazole (10, 50, or 250 mM). After SDS-PAGE confirmation of the protein fractions, protein was further purified using fast protein liquid chromatography (FPLC) using buffer A (50 mM Tris-HCl pH 8, 1 mM dithiothreitol (DTT), 10% glycerol) and elution buffer B (50 mM Tris-HCl pH 8, 1mM dithiothreitol (DTT), 10% glycerol with 500 mM NaCl) with changing gradient over a 20 minute from 2% to 100% Buffer B. FPLC eluents containing the protein was concentrated using Am icon centrifugal filter with 3K cut-off and the enzyme was stored in storage buffer (50 mM Tris-HCl pH 7.5, 10% glycerol). Human cytidine monophosphate kinase 1 (CMPK1) was purified as previously described (Deans et al., 2016).
In vitro enzyme activity assays with recombinant human UCK2: To continuously monitor reaction progress spectrophotometrically, ATP hydrolysis was coupled to NADH oxidation via pyruvate kinase (PK) and lactate dehydrogenase (LDH). Reactions were conducted at room temperature in 100 μL in 96-well plates (Greiner Bio-One, UV-Star, Half Area). Mixtures contained 20 mM HEPES (pH 7.2), 100 mM KCl, 2 mM MgCl2, 300 μM ATP, 0-500 μM uridine, 0-500 μM CPU analogs, 10 nM UCK2, 1 mM phosphoenolpyruvate, 500 μM NADH and 20 units/mL of PK and LDH. Progress was monitored in the linear region using a Biotek Synergy HT and kinetic and inhibition constants were determined using GraphPad Prism 7 (GraphPad Software).

[1] = test system: intracellular uridine and cytidine nucleotide levels; assay: LC-MS/MS analysis of intracellular nucleotides in A549 cells; format: cell-based; details: 250 μM with 1 μM GSK983, 5 μM uridine, 6 h
Description: FIG. 7. LC-MS analysis of intracellular nucleotides. (A) LC-MS analysis of intracellular uridine and cytidine nucleotide levels after 6 h treatments. In all assays, the culture medium was supplemented with 5 μM uridine and 1 μM GSK983. Error bars represent ±S.D. of two replicates. (B) LC-MS detection of mono-, di- and tri-phosphates of CPU and 5-F-CPU in cells. LC-MS/MS was performed on an Agilent 1290 infinity II LC system tandem with 6370 triple quad mass spectrometer using ion pairing chromatography. LC separation was performed at 40° C. with a solvent flow rate of 0.25 mL/min on a Zorbax RRHD Extended-C18 column (2.1×150 mm, 1.8 μM). Buffer A contained 97% H2O, 3% MeOH, 5 mM tributylamine, 5.5 mM Acetic acid and 1 μM medronic acid with pH=5.0; Buffer B contains ca. 100% MeOH, 5 mM tributylamine, 5.5 mM Acetic acid and 5 μM medronic acid with pH=7.0 The initial mobile phase composition was 100% solvent A, and a constant or linear gradient was applied after sample injection with eluent B varying as follows: 0% at 2.5 min, 20% at 7.5 min, 45% at 14 min, 99% at 20 to 23 min, and 0% from 23.1 to 27.1 min. […] Samples were measured in the negative ESI mode with capillary voltage at −3.5 kV. […]
With optimized sampling and detection method in hand, pyrimidine nucleotide levels were measured in cells cultured with either 250 μM CPU, 5-F-CPU or 5′-F-CPU in combination with 1 μM GSK983 (FIG. 7A). […]

DENV-2 virus [2] = assay: Pilot antiviral assay, DENV-Luc replication in A549 cells (FIG. 2); format: cell-based, dengue serotype 2 (DENV-2) strain 16681; details: alone, 20 μM exogenous uridine
Description: We therefore focused our efforts on evaluating CPU in combination with GSK983. Using an infectious clone of dengue serotype 2 (DENV-2) strain 16681 engineered to express a luciferase reporter, the efficacy and cytotoxicity of combinations of GSK983 and CPU were assessed in infected or uninfected cultures of the A549 lung carcinoma cell line (FIG. 2). […] However, a combination of 0.2 μM GSK and 250 μM CPU inhibited ca. 50% of virus replication.
(§1) DENV-Luc reporter virus generation: The design of the pDENV-Luc infectious clone derived from dengue serotype 2 (DENV-2) strain 16681 was described in detail by Marceau et al (Marceau et al., 2016). The plasmid was linearized with Xbal and in vitro transcribed into the genomic RNA of DENV-Luc virus using the T7 Megascript Kit (Ambion) in the presence of m7G(5′)ppp(5′)G RNA Cap Structure Analog (NEB). 5 μg DENV-Luc RNA was electroporated into 2×10^6 Vero cells. The transfected cells were resuspended with Dulbecco's modified Eagle's medium (DMEM; Invitrogen) with 10% FBS and 100 U/ml penicillin-streptomycin and transferred into a T-175 flask incubated at 37° C. with 5% CO2. Supernatants were collected and replenished with fresh medium every 24 h from day 17 to 24 post-transfection, pooled together, clarified by centrifugation and stored in aliquots at −80° C. The amount of infectious DENV-Luc virus in the stock was titrated using the TCID50 assay and calculated by the Spearman & Kärber algorithm as described previously (Hierholzer and Killington, 1996).
Pilot Antiviral Assays (for FIG. 2): A549 cells were plated overnight at 20,000 cells/well in 24-well plates in complete DMEM and incubated for 24 h at 37° C. Cell were then treated with pyrimidine de novo synthesis and/or salvage inhibitors in DMEM supplemented with 20 μM uridine. Four hours after drug addition, cells were infected with DENV-2 virus at a MOI=0.01. After 48 h, DENV-Luc replication was monitored by the production of Renilla luciferase, which was measured using the Renilla-Glo Luciferase Assay System (Promega) according to the specifications of the manufacturer. For the accompanying cell viability assay, A549 cells were seeded into 24-well plates at a density of 20,000 cells/well incubated for 24 h at 37° C. Cell were then treated with pyrimidine de novo synthesis and/or salvage inhibitors in DMEM supplemented with 20 μM uridine. Following 48h treatment, cells were harvested, and the density of viable cells was determined by flow cytometry (FSC/SSC) using a BD Accuri C6 Flow Cytometer.

DENV-2 virus [3] = assay: DENV antiviral assay, DENV-Luc replication in A549 cells (FIGS. 8 and 9); format: cell-based, dengue serotype 2 (DENV-2) strain 16681; details: single agents, 20 μM uridine
Description: as §1
DENV antiviral assays (For FIGS. 8 and 9): A549 cells were plated overnight at 5,000 cells/well in 96-well plates in complete DMEM and incubated for 24 h at 37° C. Cells were then treated with pyrimidine de novo synthesis inhibitors, and/or salvage inhibitors, and/or R1479 in DMEM supplemented with 20 μM uridine. Four hours after drug addition, cells were infected with DENV-2 virus at a MOI=0.1. After 72 h, DENV-Luc replication was monitored by the production of Renilla luciferase, which was measured using the Renilla-Glo Luciferase Assay System (Promega) according to the specifications of the manufacturer. For the accompanying cell viability assay, A549 cells were seeded at 5,000 cells/well in 96-well plates in complete DMEM and incubated for 24 h at 37° C. Cell were then treated with pyrimidine de novo synthesis inhibitors, and/or salvage inhibitors, and/or R1479 in DMEM supplemented with 20 μM uridine. Following 48 h treatment, cell viability was monitored by ATP levels, which was measured using the CellTiter-Glo Luciferase Assay System (Promega) according to the specifications of the manufacturer.

[4] = test system: a variety of unrelated viruses; details: Harvey et al. (2009); read-out: EC50, replication of a variety of unrelated viruses in vitro; cited from earlier work

Row | SMILES | UCK2 substrate or not (ATP consumption) (recombinant human UCK2; 250 μM analog in the presence of 50 μM uridine) | pKi (recombinant human UCK2; competitive inhibitors of UCK2, Lineweaver-Burk analysis) | depletion of intracellular uridine and cytidine nucleotide levels [1] | inhibition of replication of DENV-2 virus, single agent (DENV-2 virus [2]) | antiviral activity as single agent (DENV-2 virus [3]) | pEC50 [4]
1 | O=c1ccn([C@@H]2C=C(CF)[C@@H](O)[C@H]2O)c(=O)[nH]1 [5′-F-CPU, 1-((1R,4R,5S)-3-(fluoromethyl)-4,5-dihydroxycyclopent-2-en-1-yl)pyrimidine-2,4(1H,3H)-dione] | inhibitors but not substrates | 3.77 | did not deplete |  |  | 
2 | O=C(N[C@@H]1CCCc2c1[nH]c1ccc(Cl)cc21)c1ccccn1 [GSK983] |  |  |  | neither GSK nor CPU alone inhibited replication | neither GSK983 nor CPU were effective | 7.70 to 8.30
